Measurements: US11691962B2 (eXIthera Pharmaceuticals, Inc., priority 2018, dated 2023)

Molecular target: Factor XIa (Homo sapiens (Human), UniProt P03951)
Assay: Factor XIa enzyme inhibition assay (dose response, fluorogenic AMC substrate)
Type: biochemical
Conditions: read-out: hFXIa IC50
Method: • Assay buffer: 20 mM Hepes, pH 7.4; 150 mM NaCl; 0.02% Tween 20 • Compounds: 10 mM stocks in DMSO • Substrate: 20 mM Glp-Pro-Arg-AMC, 25 mg/2.3 mL H2O (store at +4° C.) [Factor XIa, thrombin, and trypsin] • 20 mM Pro-Phe-Arg-AMC (Bachem I-1295), 25 mg/2.2 mL H2O • or Boc-Leu-Gly-Arg-AMC (Bachem I-1105), 25 mg/2.07 mL H2O • (store at +4° C.) [Factor Xa] • Enzyme: Factor XIa; 0.25 μM in 50% glycerol (20 μg/mL) • Trypsin; 0.2 μM in 50% glycerol (4.8 μg/mL) • Thrombin; 0.2 μM in 50% glycerol (7.34 μg/mL) • Factor Xa; 0.2 μM in 50% glycerol (9.2 μg/mL) • These stocks are aliquoted (˜100 μL/aliquot) and stored at −20° C. Methods: • 1. Dilute the substrate to 100 μM in assay buffer (30 μL/6 mL). The enzyme is diluted to 0.5 nM just prior to use (12 μL/6 mL for Factor XIa; 15 μL/6 mL for all of the rest.) • 2. Pipette 50 μL of substrate into each well of the 96 well (12×8) microtiter plate. (Column 1 is used as the 100% activity control and receives no compound, and Column 12 is the blank and receives no enzyme.) Add an additional 46 μL to column 2. • 3. Pipette 4 μL of each compound into the appropriate well in column 2 of the plate (unknowns assayed in triplicate, standard assayed in duplicate). The final compound concentration will be […] of the stock. • 4. Serially two-fold dilute the compound by mixing the sample in column 2, removing 50 μL to the next well (column 3), mix and remove to column 4, etc. until column 11. After mixing column 11, remove 50 μL and discard. • 5. Pipette 50 μL of buffer into column 12. Initiate the reaction by adding 50 μL of enzyme solution to each well of columns 1-11 as rapidly as possible. • 6. Read the plate in a spectrophotometer (SpectraMax) at 30° C., wherein each well is measured every 60 s for 30 min. For Factor Xa assays, each well is measured every 1 min for a total of 60 min. • 7. For Factor XIa assays, the compounds are assayed, in duplicate, at 3 different starting concentrations, 20, 2, and 0.2 μM; 1:10, 1:100, and 1:1000 dilution of 10 mM stock or at 2, 0.2, and 0.02 μM; 1:100, 1:1000, and 1:10,000 dilution of 10 mM stock. Data for each concentration are combined for graphing and data fitting. • 8. Data can be used both for estimation of IC50 and for estimation of Kon.
Potential inhibitors of Factor XIa were evaluated using the following assay.
PyroGlu-Pro-Arg-7-methylaminocourin (AMC), available from CPC Scientific, Inc., is based on the substrate pyro-Glu-Pro-Arg-pNA (S-2366), available from Diapharma Group, Inc. (Columbus, Ohio), wherein the p-nitroanaline group is replaced with 7-methylaminocoumarin (AMC).
The final concentration of the substrate in the assay was 50 μM, and the final concentration of the enzyme was 0.25 nM. Inhibitors were tested by serial dilution over an appropriate range to yield a dose response curve for determination of the inhibitors' IC50 value. The assay mixture was read every minute for 30 minutes in order to generate progress curves. The plates were read in a Spectramax m5 Multimode Plate Reader (Molecular Devices LLC, Sunnyvale, Calif.). Dose response curves were fit to Equation 1 below in which A is the maximum inhibition, B is the minimum inhibition, C is the IC50, and D is the Hill coefficient. Y=[(A−B)/(1+(X/C)^D)]+B (Equation 1)

Sequence of Factor XIa (P03951 388-625): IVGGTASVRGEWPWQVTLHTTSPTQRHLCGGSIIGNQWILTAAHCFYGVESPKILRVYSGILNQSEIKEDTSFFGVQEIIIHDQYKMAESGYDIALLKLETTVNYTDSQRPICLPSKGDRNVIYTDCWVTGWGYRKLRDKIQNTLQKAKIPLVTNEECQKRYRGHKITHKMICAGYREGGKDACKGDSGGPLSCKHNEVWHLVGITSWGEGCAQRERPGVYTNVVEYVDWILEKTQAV
Sequence of Factor XIa (P03951 19-387 partner): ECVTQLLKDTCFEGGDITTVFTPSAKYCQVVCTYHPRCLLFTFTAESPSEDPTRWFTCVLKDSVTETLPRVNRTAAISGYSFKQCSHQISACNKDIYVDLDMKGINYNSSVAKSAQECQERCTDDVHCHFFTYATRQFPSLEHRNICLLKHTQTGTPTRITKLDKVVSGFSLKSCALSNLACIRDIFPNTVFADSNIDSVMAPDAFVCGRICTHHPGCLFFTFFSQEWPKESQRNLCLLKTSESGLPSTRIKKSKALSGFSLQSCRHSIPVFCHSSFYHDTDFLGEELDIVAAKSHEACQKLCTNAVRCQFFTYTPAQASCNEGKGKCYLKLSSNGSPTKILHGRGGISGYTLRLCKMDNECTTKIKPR

Compound	IC50
CC[C@H](c1cccc(Cl)c1)N(C)C(=O)N1C(=O)[C@H](Cc2ccnc(N)c2)[C@H]1C(=O)N(C)c1ccn(C)n1 [Compound 1-7, (2S,3R)-3-((2-aminopyridin-4-yl)methyl)-N2-(1-methyl-1H-pyrazol-3-yl)-N1-((R)-1-(3-chlorophenyl)propyl)-N1-methyl-N2-methyl-4-oxoazetidine-1,2-dicarboxamide]	10 to 100 nM
CC[C@@H](NC(=O)N1C(=O)[C@H](Cc2ccnc(N)c2)[C@H]1C(=O)N(C)c1ccn(C)n1)c1ccc(C)nc1 [Compound 1-20, (2S,3R)-3-((2-aminopyridin-4-yl)methyl)-N2-(1-methyl-1H-pyrazol-3-yl)-N1-((R)-1-(6-methylpyridin-3-yl)propyl)-N2-methyl-4-oxoazetidine-1,2-dicarboxamide]	< 10 nM
CC[C@@H](NC(=O)N1C(=O)[C@H](Cc2ccnc(N)c2)[C@H]1C(=O)N(C)c1ccsn1)c1ccccc1 [Compound 1-21, (2S,3R)-3-((2-aminopyridin-4-yl)methyl)-N2-(3-isothiazolyl)-N1-((R)-1-phenylpropyl)-N2-methyl-4-oxoazetidine-1,2-dicarboxamide]	10 to 100 nM
CC[C@@H](NC(=O)N1C(=O)[C@H](Cc2ccnc(NC(=O)OC(C)(C)C)c2)[C@H]1C(=O)N(C)c1cnn(C)c1)c1cccc(Cl)c1 [Compound 1-23, (2S,3R)-3-((2-(((tert-butoxy)carbonyl)amino)pyridin-4-yl)methyl)-N2-(1-methyl-1H-pyrazol-4-yl)-N1-((R)-1-(3-chlorophenyl)propyl)-N2-methyl-4-oxoazetidine-1,2-dicarboxamide]	> 1000 nM
CC[C@@H](NC(=O)N1C(=O)[C@H](Cc2ccnc(N)c2)[C@H]1C(=O)N(C)c1cscn1)c1cccc(C)c1 [Compound 1-24, (2S,3R)-3-((2-aminopyridin-4-yl)methyl)-N2-(4-thiazolyl)-N1-((R)-1-(3-methylphenyl)propyl)-N2-methyl-4-oxoazetidine-1,2-dicarboxamide]	< 10 nM
CN(C(=O)[C@@H]1[C@@H](Cc2ccnc(N)c2)C(=O)N1C(=O)NCc1cccc(Cl)c1)c1cnn(C)c1 [Compound 1-27, (2S,3R)-3-((2-aminopyridin-4-yl)methyl)-N2-(1-methyl-1H-pyrazol-4-yl)-N1-((3-chlorophenyl)methyl)-N2-methyl-4-oxoazetidine-1,2-dicarboxamide]	10 to 100 nM
CN(C(=O)[C@@H]1[C@@H](Cc2ccnc(N)c2)C(=O)N1C(=O)N[C@@H](C1CC1)C(F)(F)F)c1ccn(C)n1 [Compound 1-30, (2S,3R)-3-((2-aminopyridin-4-yl)methyl)-N2-(1-methyl-1H-pyrazol-3-yl)-N1-((S)-1-cyclopropyl-2,2,2-trifluoroethyl)-N2-methyl-4-oxoazetidine-1,2-dicarboxamide]	10 to 100 nM
CN(C(=O)[C@@H]1[C@@H](Cc2ccnc(N)c2)C(=O)N1C(=O)NCc1cccc(F)c1)c1cn(C)cn1 [Compound 1-34, (2S,3R)-3-((2-aminopyridin-4-yl)methyl)-N2-(1-methyl-1H-imidazol-4-yl)-N1-((3-fluorophenyl)methyl)-N2-methyl-4-oxoazetidine-1,2-dicarboxamide]	100 to 1000 nM
CC[C@@H](NC(=O)N1C(=O)[C@H](Cc2ccnc(NC)c2)[C@H]1C(=O)N(C)c1ccnn1C)c1cccc(Cl)c1 [Compound 1-36, (2S,3R)-3-((2-methylaminopyridin-4-yl)methyl)-N2-(1-methyl-1H-pyrazol-5-yl)-N1-((R)-1-(3-chlorophenyl)propyl)-N2-methyl-4-oxoazetidine-1,2-dicarboxamide]	10 to 100 nM
CCNc1cc(C[C@H]2C(=O)N(C(=O)N[C@H](CC)c3cccc(Cl)c3)[C@@H]2C(=O)N(C)c2ccn(C)n2)ccn1 [Compound 1-39, (2S,3R)-3-((2-ethylaminopyridin-4-yl)methyl)-N2-(1-methyl-1H-pyrazol-3-yl)-N1-((R)-1-(3-chlorophenyl)propyl)-N2-methyl-4-oxoazetidine-1,2-dicarboxamide]	10 to 100 nM
CC[C@@H](NC(=O)N1C(=O)[C@H](Cc2ccnc(N)c2)[C@H]1C(=O)N(C)c1cccs1)c1ccn(C)n1 [Compound 1-49, (2S,3R)-3-((2-aminopyridin-4-yl)methyl)-N2-(thiophen-2-yl)-N1-((R)-1-(1-methyl-1H-pyrazol-3-yl)propyl)-N2-methyl-4-oxoazetidine-1,2-dicarboxamide]	10 to 100 nM
CC[C@@H](NC(=O)N1C(=O)[C@H](Cc2ccnc(N)c2)[C@H]1C(=O)N(C)c1ccn(C)n1)c1cccs1 [Compound 1-53, (2S,3R)-3-((2-aminopyridin-4-yl)methyl)-N2-(1-methyl-1H-pyrazol-3-yl)-N1-((R)-1-(thiophen-2-yl)propyl)-N2-methyl-4-oxoazetidine-1,2-dicarboxamide]	10 to 100 nM

The remaining lines, values ahead:

IC50	Compound
10 to 100 nM	CN(C(=O)[C@@H]1[C@@H](Cc2ccnc(N)c2)C(=O)N1C(=O)NC(C1CCCCC1)C(F)(F)F)c1ccnn1C (stereo in doubt) [Compound 1-6, (2S,3R)-3-((2-aminopyridin-4-yl)methyl)-N2-(1-methyl-1H-pyrazol-5-yl)-N1-((R)-1-cyclohexyl-2,2,2-trifluoroethyl)-N2-methyl-4-oxoazetidine-1,2-dicarboxamide]
10 to 100 nM	Cc1cc(C[C@H]2C(=O)N(C(=O)NC(C3CCCCC3)C(F)(F)F)[C@@H]2C(=O)N(C)c2nccn2C)cc(N)n1 (stereo in doubt) [Compound 1-77, (2S,3R)-3-((2-amino-6-methylpyridin-4-yl)methyl)-N2-(1-methyl-1H-imidazol-2-yl)-N1-((R)-1-cyclohexyl-2,2,2-trifluoroethyl)-N2-methyl-4-oxoazetidine-1,2-dicarboxamide]
> 1000 nM	CC[C@@H](NC(=O)N1C(=O)[C@H](Cc2ccnc(N(C)C)c2)[C@H]1C(=O)N(C)c1cnn(C)c1)c1ccccc1 [Compound 1-5, (2S,3R)-3-((2-dimethylaminopyridin-4-yl)methyl)-N2-(1-methyl-1H-pyrazol-4-yl)-N1-((R)-1-phenylpropyl)-N2-methyl-4-oxoazetidine-1,2-dicarboxamide]
10 to 100 nM	CC[C@@H](NC(=O)N1C(=O)[C@H](Cc2ccnc(N)c2)[C@H]1C(=O)N(C)c1ccn(C)n1)c1cccc(C)c1 [Compound 1-14, (2S,3R)-3-((2-aminopyridin-4-yl)methyl)-N2-(1-methyl-1H-pyrazol-3-yl)-N1-((R)-1-(3-methylphenyl)propyl)-N2-methyl-4-oxoazetidine-1,2-dicarboxamide]
10 to 100 nM	CN(C(=O)[C@@H]1[C@@H](Cc2ccnc(N)c2)C(=O)N1C(=O)NCc1cccc(Cl)c1)c1cccs1 [Compound 1-29, (2S,3R)-3-((2-aminopyridin-4-yl)methyl)-N2-(thiophen-2-yl)-N1-((3-chlorophenyl)methyl)-N2-methyl-4-oxoazetidine-1,2-dicarboxamide]
10 to 100 nM	CC[C@@H](NC(=O)N1C(=O)[C@H](Cc2ccnc(NC)c2)[C@H]1C(=O)N(C)c1cccs1)c1ccccc1 [Compound 1-40, (2S,3R)-3-((2-methylaminopyridin-4-yl)methyl)-N2-(thiophen-2-yl)-N1-((R)-1-phenylpropyl)-N2-methyl-4-oxoazetidine-1,2-dicarboxamide]
100 to 1000 nM	CC[C@@H](NC(=O)N1C(=O)[C@H](Cc2ccnc(N)c2)[C@H]1C(=O)N(C)c1ccn(C)n1)c1ccn(C)n1 [Compound 1-42, (2S,3R)-3-((2-aminopyridin-4-yl)methyl)-N2-(1-methyl-1H-pyrazol-3-yl)-N1-((R)-1-(1-methyl-1H-pyrazol-3-yl)propyl)-N2-methyl-4-oxoazetidine-1,2-dicarboxamide]
